Format in all cases: in vitro ADME
Data set [1] can be described thus: In vitro plasma stability, human plasma. The settings on record: 37° C.; for Percent remaining after 2 h incubation / k: 1.0 µM; for half-life at 1 µM: both sexes, pH 7.4, read-out: T½ (converted); for k: pH 7.4, slope of log % remaining versus incubation time. From the text: (§1) Human plasma (Bioreclamation, Cat#: BRH470404, male:female=1:1,v:v); Rat plasma (HDB, Cat#: HDB_RsP_20221120, male:female=1:1,v:v); C57 Mouse plasma (HDB, Cat#: HDB_MsP_202201120, male:female=1:1,v:v); Male cynomolgus monkey plasma (RILD, Cat#: MP210107-P). Analytical grade inorganic salts were purchased from Sinopharm Chemical Reagent Co. (Shanghai, China). HPLC grade organic solvents were purchased from Sigma-Aldrich, USA. Distilled water, prepared from demineralized water, was used throughout the study.
(§2) Stock solution of test compound was provided in 100% DMSO. The stock solution for each compound was diluted into 100 µM with ACN(50%) and then diluted into plasma of different species (pH 7.4) to achieve a final concentration of 1.0 µM.
(§3) 1.0 µM of test compound in duplicate was incubated in plasma at 37° C. Aliquots of 50 µL or 80 µL sample were collected at 0, 0.25, 0.5, 1 and 2 h.
(§4) An aliquot of 50 µL samples were collected at various time points, and mixed with 300 µL of ice-cold 100% acetonitrile containing internal standard. After centrifuging the plate at 4000 rpm for 20 min, 50 µL of supernatants were added with 100 µL H2O, mix well and analyzed with UPLC-MS/MS.
(§5) A Waters liquid chromatographic system was used. Detection was performed on an API4000 Q-Trap and API5500 mass spectrometer equipped with TurbolonSpray (ESI) Interface (Applied Biosystems, Concord, Ontario, Canada). Analyst 1.5 and 1.6.2 software packages (Applied Biosystems) were used to control the LC-MS/MS system, as well as for data acquisition and processing.
(§6) Chromatographic separation was achieved on the Waters ACQUITY UPLC BEH C18 column (50*2.1 mm ID, 1.7 µm) and Thermo Scientific AccucoreTM PFP column(100*2.1 ID mm, 2.6 µm). The column temperature was maintained at ambient temperature (25° C.). The flow rate was maintained at 0.6 mL/min and the mobile phases used were according to Tables 5-7.
(§7) The peak area ratio of test compound to internal standard is plotted as a percentage of the relevant zero time point control (% Remained) for each reaction. The rate of metabolism (k) is the slope of the linear regression from log percentage remaining versus incubation time.

The nature of data set [2]: In vitro plasma stability, monkey plasma. The note with it: cynomolgus monkey plasma, 37° C.; for half-life at 1 µM: male, pH 7.4, read-out: T½ (converted).
Description: as §1, §2, §3, §4, §5, §6, §7

A short description of data set [3]: In vitro plasma stability, rat plasma. The settings on record: SD rat plasma, 37° C.; for half-life at 1 µM: both sexes, pH 7.4, read-out: T½ (converted).
Description: as §1, §2, §3, §4, §5, §6, §7

A short description of data set [4]: In vitro plasma stability, mouse plasma. The note with it: C57 mouse plasma, 37° C.; for Percent remaining after 2 h incubation / k: 1.0 µM; for half-life at 1 µM: both sexes, pH 7.4, read-out: T½ (converted); for k: pH 7.4.
Description: as §1, §2, §3, §4, §5, §6, §7

SMILES strings stand for the structures.

Consider `CC(=O)Oc1cccc2[nH]cc(CCN(C)C)c12` [Compound 4-AcO-DMT, 4-acetoxy-N,N-dimethyltryptamine], for which the “Percent remaining after 2 h incubation” value in data set [1], in data set [2] (1.0 µM), in data set [3] (1.0 µM) and in data set [4] was 0.00% each time. In addition, the half-life at 1 µM in data set [1], in data set [2], in data set [3] and in data set [4] was below 0.125 h each time.
`COc1ccc([C@@H]2Sc3ccccc3N(CCN(C)C)C(=O)[C@@H]2OC(C)=O)cc1` [Diltiazem]: the “Percent remaining after 2 h incubation” value in data set [1] was found to be 80.5%; in data set [2] (1.0 µM) it was 90.5%; in data set [3] (1.0 µM), 78.8%; in data set [4], 87.9%. For the same molecule, the half-life at 1 µM in data set [1] is 6.4 h; in data set [2], 12.8 h; in data set [3] it was 6.75 h; in data set [4], 10.6 h.
Take `CCN(CC)CCOC(=O)c1ccc(N)cc1` [Procaine]: the “Percent remaining after 2 h incubation” value in data set [1] is reported as 0.00%; in data set [2] (1.0 µM), 0.00%; in data set [3] (1.0 µM), 52.0%; in data set [4], 0.00%. The figures for the half-life at 1 µM in data set [1], in data set [3] and in data set [4] were below 0.125 h, 2 h and below 0.125 h, respectively. The k was determined as 26.073 in data set [2] (1.0 µM, pH 7.4); 0.347 in data set [3] (1.0 µM, pH 7.4); 11.212 in data set [4].
For the molecule `CN(C)CCc1c[nH]c2cccc(O)c12` [Psilocin], the “Percent remaining after 2 h incubation” value is on record as 97.9% in data set [1], 92.8% in data set [2] (1.0 µM), 86.2% in data set [3] (1.0 µM) and 89.2% in data set [4]. The k is 0.034 in data set [1]; 0.039 in data set [2] (1.0 µM, pH 7.4); 0.092 in data set [3] (1.0 µM, pH 7.4); 0.048 in data set [4]. In addition, the half-life at 1 µM in data set [1] is 20.5 h; in data set [2], 17.9 h; in data set [3], 7.54 h; in data set [4], 14.5 h.
With `CN(C)CCc1c[nH]c2cccc(OP(=O)(O)O)c12` [Psilocybin], the “Percent remaining after 2 h incubation” value in data set [1] was found to be 19.4%; in data set [2] (1.0 µM), 113%; in data set [3] (1.0 µM) it was 113%; in data set [4], 93.2%. The k in data set [1] is 0.849; in data set [2] (1.0 µM, pH 7.4), -0.046; in data set [3] (1.0 µM, pH 7.4) it was -0.066; in data set [4] it was 0.008. Moreover, the half-life at 1 µM in data set [1] is 0.82 h; in data set [4], 91.5 h. Also, the T½ result in data set [2] (1.0 µM, pH 7.4) is given as “stable”; in data set [3] (1.0 µM, pH 7.4) it was “stable”.

Values taken from US20230346747A1, “DIALKYL T[…] THEIR […] USES” (CAAMTECH, INC., priority 2020, published 2023).
